Experiment [1] addresses Mitogen-activated protein kinase kinase kinase kinase 3 (Homo sapiens) (UniProt Q8IVH8). Briefly: Inhibition of MAP4K3 (unknown origin) assessed as remaining activity at 1 uM by Kinome scan method relative to control.
Experiment [2] concerns the target Tyrosine-protein kinase receptor Tie-1 (Homo sapiens) (UniProt P35590). Nature of the experiment: Inhibition of TIE1 (unknown origin) assessed as remaining activity at 1 uM by Kinome scan method relative to control.
The target of experiment [3] is Ephrin type-B receptor 6 (Homo sapiens) (UniProt O15197). Briefly: Inhibition of EPHB6 (unknown origin) assessed as remaining activity at 1 uM by Kinome scan method relative to control.
Sequence of Ephrin type-B receptor 6 (Homo sapiens) (O15197 whole entry): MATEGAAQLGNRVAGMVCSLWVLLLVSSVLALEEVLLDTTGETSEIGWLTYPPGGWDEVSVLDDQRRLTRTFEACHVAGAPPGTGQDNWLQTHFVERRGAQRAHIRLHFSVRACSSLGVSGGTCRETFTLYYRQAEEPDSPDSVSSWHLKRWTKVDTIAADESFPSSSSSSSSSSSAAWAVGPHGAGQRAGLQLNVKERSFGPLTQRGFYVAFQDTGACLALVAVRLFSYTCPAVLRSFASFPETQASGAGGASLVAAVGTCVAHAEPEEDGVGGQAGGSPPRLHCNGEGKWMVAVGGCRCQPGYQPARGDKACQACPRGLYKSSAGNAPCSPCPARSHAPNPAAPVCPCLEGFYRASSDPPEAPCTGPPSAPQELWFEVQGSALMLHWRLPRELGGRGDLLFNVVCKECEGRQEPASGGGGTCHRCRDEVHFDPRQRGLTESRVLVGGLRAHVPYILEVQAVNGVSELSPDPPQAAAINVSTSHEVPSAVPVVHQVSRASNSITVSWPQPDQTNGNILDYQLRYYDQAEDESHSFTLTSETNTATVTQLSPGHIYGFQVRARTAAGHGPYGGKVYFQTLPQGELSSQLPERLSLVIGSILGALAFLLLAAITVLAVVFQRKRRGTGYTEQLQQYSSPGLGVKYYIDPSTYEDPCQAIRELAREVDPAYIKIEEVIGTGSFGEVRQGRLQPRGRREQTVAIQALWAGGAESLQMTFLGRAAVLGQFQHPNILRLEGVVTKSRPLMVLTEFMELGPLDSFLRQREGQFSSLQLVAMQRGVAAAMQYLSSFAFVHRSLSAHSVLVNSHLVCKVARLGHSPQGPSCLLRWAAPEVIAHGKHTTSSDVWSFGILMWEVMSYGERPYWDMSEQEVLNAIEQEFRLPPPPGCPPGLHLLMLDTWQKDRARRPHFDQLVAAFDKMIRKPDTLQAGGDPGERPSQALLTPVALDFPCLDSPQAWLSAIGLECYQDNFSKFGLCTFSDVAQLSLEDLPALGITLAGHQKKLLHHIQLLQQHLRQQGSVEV
Experiment [4] concerns the target Serine/threonine-protein kinase PLK3 (Homo sapiens) (UniProt Q9H4B4). Briefly: Inhibition of PLK3 (unknown origin) assessed as remaining activity at 1 uM by Kinome scan method relative to control.
Experiment [5] addresses MAP kinase-activated protein kinase 2 (Homo sapiens) (UniProt P49137). Nature of the experiment: Inhibition of MAPKAPK2 (unknown origin) assessed as remaining activity at 1 uM by Kinome scan method relative to control.
Experiment [6] deals with T1, Serine/threonine-protein kinase D1 (Homo sapiens) (UniProt Q15139).
T1 sequence (whole entry): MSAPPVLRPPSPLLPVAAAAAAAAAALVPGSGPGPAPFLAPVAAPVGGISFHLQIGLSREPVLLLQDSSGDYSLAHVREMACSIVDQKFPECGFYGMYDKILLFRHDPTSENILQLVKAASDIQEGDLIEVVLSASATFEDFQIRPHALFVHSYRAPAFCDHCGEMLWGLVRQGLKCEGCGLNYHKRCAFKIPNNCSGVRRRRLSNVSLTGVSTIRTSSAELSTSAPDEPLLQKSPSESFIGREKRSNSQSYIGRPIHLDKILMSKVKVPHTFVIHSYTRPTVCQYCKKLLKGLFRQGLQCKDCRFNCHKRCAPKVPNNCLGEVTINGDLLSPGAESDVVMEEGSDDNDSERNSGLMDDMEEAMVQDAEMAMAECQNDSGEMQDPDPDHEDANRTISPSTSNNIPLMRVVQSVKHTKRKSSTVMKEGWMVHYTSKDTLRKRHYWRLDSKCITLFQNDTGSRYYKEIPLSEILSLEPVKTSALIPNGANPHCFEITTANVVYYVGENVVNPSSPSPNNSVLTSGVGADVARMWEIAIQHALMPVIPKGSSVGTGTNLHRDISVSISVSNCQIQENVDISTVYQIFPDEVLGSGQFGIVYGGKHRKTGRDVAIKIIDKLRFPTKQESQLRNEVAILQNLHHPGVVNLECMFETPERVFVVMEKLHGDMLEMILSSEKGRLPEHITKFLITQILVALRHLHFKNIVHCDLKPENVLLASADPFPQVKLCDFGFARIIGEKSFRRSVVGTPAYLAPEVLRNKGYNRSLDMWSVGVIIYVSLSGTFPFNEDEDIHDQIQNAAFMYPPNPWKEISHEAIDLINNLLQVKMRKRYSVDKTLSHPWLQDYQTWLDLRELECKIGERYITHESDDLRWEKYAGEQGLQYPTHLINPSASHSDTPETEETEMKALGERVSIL
Briefly: Inhibition of PRKD1 (unknown origin) assessed as remaining activity at 1 uM by Kinome scan method relative to control.

For experiment [7], the target named is Fibroblast growth factor receptor 1 (Homo sapiens) (UniProt P11362). Nature of the experiment: Inhibition of FGFR1 (unknown origin) assessed as remaining activity at 1 uM by Kinome scan method relative to control.
Experiment [8] addresses T2, Serine/threonine-protein kinase BRSK1 (Homo sapiens) (UniProt Q8TDC3).
T2 sequence (whole entry): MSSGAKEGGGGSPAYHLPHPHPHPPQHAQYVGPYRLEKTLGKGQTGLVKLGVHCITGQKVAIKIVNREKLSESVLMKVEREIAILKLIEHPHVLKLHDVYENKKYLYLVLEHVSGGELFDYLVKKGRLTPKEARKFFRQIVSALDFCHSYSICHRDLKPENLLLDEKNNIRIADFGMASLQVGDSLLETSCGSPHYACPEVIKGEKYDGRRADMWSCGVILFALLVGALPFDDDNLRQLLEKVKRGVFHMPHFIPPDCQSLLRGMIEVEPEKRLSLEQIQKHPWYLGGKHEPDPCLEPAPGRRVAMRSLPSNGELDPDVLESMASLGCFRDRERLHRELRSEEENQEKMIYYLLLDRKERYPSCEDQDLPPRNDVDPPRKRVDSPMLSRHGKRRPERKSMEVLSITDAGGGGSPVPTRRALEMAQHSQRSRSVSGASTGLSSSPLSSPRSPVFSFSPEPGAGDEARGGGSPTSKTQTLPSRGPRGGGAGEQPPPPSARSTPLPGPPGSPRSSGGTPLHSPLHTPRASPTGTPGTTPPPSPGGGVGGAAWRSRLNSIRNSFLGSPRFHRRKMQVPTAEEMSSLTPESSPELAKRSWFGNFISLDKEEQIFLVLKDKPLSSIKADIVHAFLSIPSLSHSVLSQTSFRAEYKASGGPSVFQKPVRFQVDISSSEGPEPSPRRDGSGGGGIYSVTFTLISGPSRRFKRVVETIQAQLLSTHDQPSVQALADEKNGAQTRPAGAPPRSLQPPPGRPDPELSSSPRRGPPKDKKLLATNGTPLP
Nature of the experiment: Inhibition of BRSK1 (unknown origin) assessed as remaining activity at 1 uM by Kinome scan method relative to control.

The target of experiment [9] is Cyclin-dependent kinase-like 5 (Homo sapiens) (UniProt O76039). Briefly: Inhibition of CDKL5 (unknown origin) assessed as remaining activity at 1 uM by Kinome scan method relative to control.
Sequence of Cyclin-dependent kinase-like 5 (Homo sapiens) (O76039 whole entry): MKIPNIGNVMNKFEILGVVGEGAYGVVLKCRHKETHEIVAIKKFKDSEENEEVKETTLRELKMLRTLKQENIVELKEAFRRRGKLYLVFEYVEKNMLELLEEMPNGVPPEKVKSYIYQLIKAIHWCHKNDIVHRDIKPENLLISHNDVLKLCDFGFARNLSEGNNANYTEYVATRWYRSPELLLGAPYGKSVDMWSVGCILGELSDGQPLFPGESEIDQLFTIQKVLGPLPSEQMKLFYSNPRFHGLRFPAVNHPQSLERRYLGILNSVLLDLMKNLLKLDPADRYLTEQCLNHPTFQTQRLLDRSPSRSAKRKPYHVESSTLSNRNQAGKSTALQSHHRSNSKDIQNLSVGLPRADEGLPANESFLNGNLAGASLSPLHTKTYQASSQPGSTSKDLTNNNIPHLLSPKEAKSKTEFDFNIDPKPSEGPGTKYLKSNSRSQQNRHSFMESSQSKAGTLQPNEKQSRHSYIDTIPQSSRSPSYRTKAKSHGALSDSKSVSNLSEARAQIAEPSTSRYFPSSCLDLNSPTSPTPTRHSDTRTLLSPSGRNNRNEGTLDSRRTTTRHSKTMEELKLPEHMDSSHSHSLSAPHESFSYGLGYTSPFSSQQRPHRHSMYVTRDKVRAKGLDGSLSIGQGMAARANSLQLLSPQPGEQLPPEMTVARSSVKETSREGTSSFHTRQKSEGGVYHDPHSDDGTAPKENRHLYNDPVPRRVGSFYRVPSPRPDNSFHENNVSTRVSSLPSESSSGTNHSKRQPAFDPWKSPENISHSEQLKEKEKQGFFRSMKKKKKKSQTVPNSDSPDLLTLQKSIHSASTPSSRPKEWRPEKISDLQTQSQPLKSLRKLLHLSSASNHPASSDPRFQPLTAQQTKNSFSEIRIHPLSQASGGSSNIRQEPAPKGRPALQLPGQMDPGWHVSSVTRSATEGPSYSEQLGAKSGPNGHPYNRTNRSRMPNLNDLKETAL
Experiment [10] deals with Dual specificity mitogen-activated protein kinase kinase 3 (Homo sapiens) (UniProt P46734). Nature of the experiment: Inhibition of MEK3 (unknown origin) assessed as remaining activity at 1 uM by Kinome scan method relative to control.
Sequence of Dual specificity mitogen-activated protein kinase kinase 3 (Homo sapiens) (P46734 whole entry): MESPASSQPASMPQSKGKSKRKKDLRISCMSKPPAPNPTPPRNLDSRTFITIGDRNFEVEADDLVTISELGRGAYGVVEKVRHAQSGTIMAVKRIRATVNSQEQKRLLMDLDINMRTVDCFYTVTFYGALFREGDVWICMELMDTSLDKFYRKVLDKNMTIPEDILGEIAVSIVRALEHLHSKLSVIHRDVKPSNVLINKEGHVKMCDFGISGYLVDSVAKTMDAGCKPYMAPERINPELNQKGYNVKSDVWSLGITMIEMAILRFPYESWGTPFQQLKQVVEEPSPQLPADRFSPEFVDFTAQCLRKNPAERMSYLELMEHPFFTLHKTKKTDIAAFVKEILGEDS
The target in experiment [11] is Phosphatidylinositol 5-phosphate 4-kinase type-2 beta (Homo sapiens) (UniProt P78356). Nature of the experiment: Inhibition of PIP5K2B (unknown origin) assessed as remaining activity at 1 uM by Kinome scan method relative to control.
Sequence of Phosphatidylinositol 5-phosphate 4-kinase type-2 beta (Homo sapiens) (P78356 whole entry): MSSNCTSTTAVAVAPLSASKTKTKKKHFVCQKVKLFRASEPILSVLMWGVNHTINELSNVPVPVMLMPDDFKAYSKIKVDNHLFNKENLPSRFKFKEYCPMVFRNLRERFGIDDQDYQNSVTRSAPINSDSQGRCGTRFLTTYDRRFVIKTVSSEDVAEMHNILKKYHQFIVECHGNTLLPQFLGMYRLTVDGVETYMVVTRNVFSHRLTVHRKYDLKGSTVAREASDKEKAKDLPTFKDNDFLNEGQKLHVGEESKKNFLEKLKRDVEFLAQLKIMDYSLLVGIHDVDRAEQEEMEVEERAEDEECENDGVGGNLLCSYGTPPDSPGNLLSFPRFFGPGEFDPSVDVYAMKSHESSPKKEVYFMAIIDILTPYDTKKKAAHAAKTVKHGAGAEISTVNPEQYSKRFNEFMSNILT
The target in experiment [12] is Serine/threonine-protein kinase RIO2 (Homo sapiens) (UniProt Q9BVS4). Briefly: Inhibition of RIOK2 (unknown origin) assessed as remaining activity at 1 uM by Kinome scan method relative to control.
For experiment [13], the target named is Myosin light chain kinase, smooth muscle (Homo sapiens) (UniProt Q15746). Briefly: Inhibition of MYLK (unknown origin) assessed as remaining activity at 1 uM by Kinome scan method relative to control.
The target in experiment [14] is Serine/threonine-protein kinase 33 (Homo sapiens) (UniProt Q9BYT3). Briefly: Inhibition of STK33 (unknown origin) assessed as remaining activity at 1 uM by Kinome scan method relative to control.
Sequence of Serine/threonine-protein kinase 33 (Homo sapiens) (Q9BYT3 whole entry, looked up): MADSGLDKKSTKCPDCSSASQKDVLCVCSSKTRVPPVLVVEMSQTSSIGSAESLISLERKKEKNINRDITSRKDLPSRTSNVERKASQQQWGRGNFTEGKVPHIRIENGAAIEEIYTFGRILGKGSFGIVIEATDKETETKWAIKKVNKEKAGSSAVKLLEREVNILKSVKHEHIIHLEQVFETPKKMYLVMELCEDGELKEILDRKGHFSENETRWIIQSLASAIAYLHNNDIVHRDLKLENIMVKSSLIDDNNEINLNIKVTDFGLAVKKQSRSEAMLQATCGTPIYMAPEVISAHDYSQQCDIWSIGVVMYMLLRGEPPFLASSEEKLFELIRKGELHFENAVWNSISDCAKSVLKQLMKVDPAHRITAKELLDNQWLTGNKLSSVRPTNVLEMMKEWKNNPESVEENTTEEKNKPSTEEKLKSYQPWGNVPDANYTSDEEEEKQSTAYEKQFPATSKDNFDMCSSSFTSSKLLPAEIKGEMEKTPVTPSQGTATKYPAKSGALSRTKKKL
The target of experiment [15] is Activin receptor type-1-like (Homo sapiens) (UniProt P37023). Nature of the experiment: Inhibition of ACVRL1 (unknown origin) assessed as remaining activity at 1 uM by Kinome scan method relative to control.
The target of experiment [16] is Serine/threonine-protein kinase DCLK3 (Homo sapiens) (UniProt Q9C098). Nature of the experiment: Inhibition of DCAMKL3 (unknown origin) assessed as remaining activity at 1 uM by Kinome scan method relative to control.
Sequence of Serine/threonine-protein kinase DCLK3 (Homo sapiens) (Q9C098 whole entry): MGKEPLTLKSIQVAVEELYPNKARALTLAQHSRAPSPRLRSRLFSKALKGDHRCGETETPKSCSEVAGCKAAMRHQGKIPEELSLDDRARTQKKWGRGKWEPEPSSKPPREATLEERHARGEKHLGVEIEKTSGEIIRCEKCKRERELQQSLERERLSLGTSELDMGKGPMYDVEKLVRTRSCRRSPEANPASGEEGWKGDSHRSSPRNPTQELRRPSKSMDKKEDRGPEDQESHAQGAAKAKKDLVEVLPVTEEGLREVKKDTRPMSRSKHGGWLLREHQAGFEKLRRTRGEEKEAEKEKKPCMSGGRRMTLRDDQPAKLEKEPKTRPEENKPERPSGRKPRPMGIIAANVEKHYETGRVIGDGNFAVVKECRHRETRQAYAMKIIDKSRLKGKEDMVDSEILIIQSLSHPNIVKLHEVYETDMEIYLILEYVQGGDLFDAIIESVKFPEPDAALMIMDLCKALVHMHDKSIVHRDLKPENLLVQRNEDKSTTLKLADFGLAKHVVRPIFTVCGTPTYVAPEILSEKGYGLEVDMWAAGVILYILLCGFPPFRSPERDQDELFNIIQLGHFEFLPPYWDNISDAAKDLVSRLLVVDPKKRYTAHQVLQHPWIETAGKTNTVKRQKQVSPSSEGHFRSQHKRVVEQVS

Sequence of Serine/threonine-protein kinase PLK3 (Homo sapiens) (Q9H4B4 whole entry, looked up): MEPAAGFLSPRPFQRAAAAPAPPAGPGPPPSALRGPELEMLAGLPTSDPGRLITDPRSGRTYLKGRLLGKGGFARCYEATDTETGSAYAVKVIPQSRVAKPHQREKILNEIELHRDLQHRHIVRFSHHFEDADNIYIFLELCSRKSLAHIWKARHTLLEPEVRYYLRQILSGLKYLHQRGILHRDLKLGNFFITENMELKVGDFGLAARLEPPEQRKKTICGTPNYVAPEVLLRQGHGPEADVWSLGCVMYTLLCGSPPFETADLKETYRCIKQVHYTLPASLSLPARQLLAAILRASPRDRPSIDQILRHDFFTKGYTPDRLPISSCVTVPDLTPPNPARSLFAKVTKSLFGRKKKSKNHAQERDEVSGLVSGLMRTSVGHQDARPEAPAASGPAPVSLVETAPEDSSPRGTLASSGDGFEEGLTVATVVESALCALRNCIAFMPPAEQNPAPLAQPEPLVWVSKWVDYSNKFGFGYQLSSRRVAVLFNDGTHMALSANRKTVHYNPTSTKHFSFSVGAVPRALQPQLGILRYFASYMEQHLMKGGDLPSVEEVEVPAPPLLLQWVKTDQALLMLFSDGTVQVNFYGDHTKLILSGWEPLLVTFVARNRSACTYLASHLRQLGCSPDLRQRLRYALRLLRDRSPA
Sequence of MAP kinase-activated protein kinase 2 (Homo sapiens) (P49137 whole entry, looked up): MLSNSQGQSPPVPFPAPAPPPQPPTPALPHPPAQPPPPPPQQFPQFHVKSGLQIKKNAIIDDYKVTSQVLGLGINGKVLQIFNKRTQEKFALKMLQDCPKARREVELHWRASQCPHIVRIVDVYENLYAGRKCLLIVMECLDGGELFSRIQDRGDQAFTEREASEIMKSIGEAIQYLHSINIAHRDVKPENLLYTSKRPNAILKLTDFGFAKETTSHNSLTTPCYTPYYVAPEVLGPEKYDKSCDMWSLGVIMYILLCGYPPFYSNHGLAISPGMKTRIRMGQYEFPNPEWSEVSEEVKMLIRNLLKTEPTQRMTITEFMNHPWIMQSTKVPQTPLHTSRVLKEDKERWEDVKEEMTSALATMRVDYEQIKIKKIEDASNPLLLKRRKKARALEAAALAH

Turning to `Nc1ccccc1Nc1ccc2c(c1)CCc1ccccc1C2=O`, the Activity is 75% in experiment [1]; 96% in [2]; 99% in experiment [3]; 97% in experiment [4]; 96% in experiment [5]; 91% in [6]. For the same molecule, the Activity in experiment [7] stood at 94%; in experiment [8] it was 98%; in experiment [9], 96%; in experiment [10], 97%; in experiment [11], 86%; in experiment [12], 85%. The Activity in experiment [13] was 72%; in experiment [14], 82%; in experiment [15], 89%; in experiment [16], 91%.
`O=C1c2ccc(Nc3ccc(F)cc3F)cc2CCc2ccc(OC[C@H](O)CO)cc21` [Skepinone-L]: the Activity in experiment [1] is 88%; in [2], 100%; in experiment [3] it was 91%; in [4], 100%; in experiment [5], 94%; in experiment [6] it was 100%. Moreover, the Activity in [7] amounted to 90%; in experiment [8] it was 100%; in [9] it was 100%; in [10], 95%; in experiment [11], 100%; in [12], 81%. The Activity in experiment [13] turned out to be 97%; in experiment [14] it was 100%; in [15] it was 100%; in [16], 99%.

These data come from ChEMBL document CHEMBL5696441 (Nat Chem Biol, 2011).
